Assay [1] is filed under the species Homo sapiens. Kind of assay: Selectivity index, ratio of Ki for inhibition of C-terminal 6x-histidine tagged beta-catenin (138 to 686 residues) (unknown origin) expressed in Escherichia coli BL21 DE3/N-terminally biotinylated human E-cadherin (824 to 877 residues) protein-protein interactions by Alpha-screen assay to Ki for …. A general note: Bead proximity is the source of the signal in Alpha formats.

For assay [2], the system named is MDA-MB-231. Briefly: Cytotoxicity in human MDA-MB-231 cells assessed as reduction in cell viability incubated for 72 hrs by MTS assay. The format is functional, cell-based. Conditions: for IC50: MDA-MB-231, 72 h. A general note: Tetrazolium dyes change colour on reduction, which living cells bring about.
Assay [3] has as its system MCF-10A. Briefly: Cytotoxicity in human MCF10A cells assessed as reduction in cell viability incubated for 72 hrs by MTS assay. Format: cell-based.
Assay [4] deals with HCT-116. Kind of assay: Cytotoxicity in human HCT116 cells assessed as reduction in cell viability incubated for 72 hrs by MTS assay. Format: functional, cell-based. The note with it: for IC50: HCT-116, 72 h.
The subject of assay [5] is A549. Kind of assay: Cytotoxicity in human A549 cells assessed as reduction in cell viability incubated for 72 hrs by MTS assay. The format is functional, cell-based. The note with it: A549, 72 h.
For assay [6], the system named is SW480. Kind of assay: Cytotoxicity in human SW480 cells assessed as reduction in cell viability incubated for 72 hrs by MTS assay. The note with it: for IC50: SW480, 72 h. The format is functional, cell-based.
Assay [7] concerns the target T1, beta-catenin-B-cell lymphoma 9 protein complex (Homo sapiens, UniProt P35222).
T1 sequence (P35222 whole entry): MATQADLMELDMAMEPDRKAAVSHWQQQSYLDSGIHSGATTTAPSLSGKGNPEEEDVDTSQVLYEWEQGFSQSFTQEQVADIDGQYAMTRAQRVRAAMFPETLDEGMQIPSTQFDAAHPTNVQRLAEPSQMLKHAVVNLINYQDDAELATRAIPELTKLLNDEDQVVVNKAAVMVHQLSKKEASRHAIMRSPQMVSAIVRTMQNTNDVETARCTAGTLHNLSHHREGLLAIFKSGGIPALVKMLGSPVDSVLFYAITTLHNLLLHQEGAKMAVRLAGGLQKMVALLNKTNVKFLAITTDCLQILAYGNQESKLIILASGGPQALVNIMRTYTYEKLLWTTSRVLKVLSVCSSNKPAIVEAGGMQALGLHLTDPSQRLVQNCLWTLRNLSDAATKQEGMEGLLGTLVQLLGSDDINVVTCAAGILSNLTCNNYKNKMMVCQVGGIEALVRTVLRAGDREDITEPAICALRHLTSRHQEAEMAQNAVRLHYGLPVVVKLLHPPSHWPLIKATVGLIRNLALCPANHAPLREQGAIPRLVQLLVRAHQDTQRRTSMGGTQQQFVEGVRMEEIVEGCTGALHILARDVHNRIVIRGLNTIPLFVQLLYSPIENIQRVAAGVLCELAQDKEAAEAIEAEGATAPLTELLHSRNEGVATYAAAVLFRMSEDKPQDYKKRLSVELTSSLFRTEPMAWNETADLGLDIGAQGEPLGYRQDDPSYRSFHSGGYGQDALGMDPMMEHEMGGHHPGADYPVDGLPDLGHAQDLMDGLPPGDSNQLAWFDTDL
T1 sequence (O00512 whole entry): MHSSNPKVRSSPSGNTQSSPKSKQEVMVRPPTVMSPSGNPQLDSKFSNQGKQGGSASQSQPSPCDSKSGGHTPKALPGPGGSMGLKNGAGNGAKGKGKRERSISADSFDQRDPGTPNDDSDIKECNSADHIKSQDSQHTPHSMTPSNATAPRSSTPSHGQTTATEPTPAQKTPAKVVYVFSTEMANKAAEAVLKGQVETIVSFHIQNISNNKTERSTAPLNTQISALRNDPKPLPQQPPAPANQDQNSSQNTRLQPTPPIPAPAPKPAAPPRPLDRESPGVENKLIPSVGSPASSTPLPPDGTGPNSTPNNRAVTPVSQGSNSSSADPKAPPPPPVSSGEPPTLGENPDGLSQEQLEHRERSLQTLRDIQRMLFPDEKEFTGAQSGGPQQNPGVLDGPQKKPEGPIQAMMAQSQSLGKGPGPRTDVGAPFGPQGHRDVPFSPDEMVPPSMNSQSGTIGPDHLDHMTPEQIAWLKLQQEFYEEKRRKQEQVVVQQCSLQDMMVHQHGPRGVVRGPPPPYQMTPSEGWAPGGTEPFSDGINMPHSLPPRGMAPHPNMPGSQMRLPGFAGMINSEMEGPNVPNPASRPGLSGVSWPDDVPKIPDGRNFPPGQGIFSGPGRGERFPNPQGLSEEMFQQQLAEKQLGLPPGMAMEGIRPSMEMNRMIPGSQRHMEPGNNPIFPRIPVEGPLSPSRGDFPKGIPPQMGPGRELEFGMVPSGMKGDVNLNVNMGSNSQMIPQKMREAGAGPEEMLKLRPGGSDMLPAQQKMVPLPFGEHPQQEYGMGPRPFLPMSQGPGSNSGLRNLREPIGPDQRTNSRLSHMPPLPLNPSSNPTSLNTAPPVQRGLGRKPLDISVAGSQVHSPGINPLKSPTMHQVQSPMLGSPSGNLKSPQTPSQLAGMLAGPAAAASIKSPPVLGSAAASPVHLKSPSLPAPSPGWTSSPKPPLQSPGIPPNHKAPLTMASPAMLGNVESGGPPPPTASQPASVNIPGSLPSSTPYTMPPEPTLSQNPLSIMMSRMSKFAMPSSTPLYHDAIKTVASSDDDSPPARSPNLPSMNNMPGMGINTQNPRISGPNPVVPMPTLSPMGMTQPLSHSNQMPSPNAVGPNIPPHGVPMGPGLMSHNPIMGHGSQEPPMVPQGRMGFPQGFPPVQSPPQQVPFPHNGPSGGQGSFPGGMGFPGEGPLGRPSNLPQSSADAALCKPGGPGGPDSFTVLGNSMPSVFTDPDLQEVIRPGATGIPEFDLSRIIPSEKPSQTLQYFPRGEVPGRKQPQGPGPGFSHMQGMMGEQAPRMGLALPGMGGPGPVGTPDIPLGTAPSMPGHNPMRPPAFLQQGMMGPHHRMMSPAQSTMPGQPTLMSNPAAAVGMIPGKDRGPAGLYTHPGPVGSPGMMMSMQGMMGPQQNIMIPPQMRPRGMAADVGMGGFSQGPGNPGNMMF
Briefly: Inhibition of C-terminal 6x-histidine tagged beta-catenin (138 to 686 residues) (unknown origin) expressed in Escherichia coli BL21 DE3 /human BCL9 (350 to 375 residues) protein-protein interactions incubated for 1 hr by Alpha-screen assay.

Assay [8] concerns HT-29. Briefly: Cytotoxicity in human HT-29 cells assessed as reduction in cell viability incubated for 72 hrs by MTS assay. The format is functional, cell-based. Conditions: for IC50: HT-29, 72 h.
Assay [9] relates to SW480. Kind of assay: Inhibition of anchorage-independent growth in human SW480 cells incubated fro 18 days by crystal violet staining based assay. Format: functional, cell-based.
Assay [10] addresses beta-catenin-B-cell lymphoma 9 protein complex (Homo sapiens, UniProt P35222, D145A/E155A). Kind of assay: Inhibition of inhibited beta-catenin D145A/E155A mutant (unknown origin) expressed in Escherichia coli BL21 DE3 /human BCL9 (350 to 375 residues) protein-protein interactions by Alpha-screen assay.
In assay [11] the target is beta-catenin-B-cell lymphoma 9 protein complex (Homo sapiens, UniProt P35222, D145A). Kind of assay: Inhibition of inhibited beta-catenin D145A mutant (unknown origin) expressed in Escherichia coli BL21 DE3 /human BCL9 (350 to 375 residues) protein-protein interactions by Alpha-screen assay.

Results on ten compounds are retold here after ChEMBL document CHEMBL4419168, “Substituted n-([1,1''-biphenyl]-3-yl)-[1,1''-biphenyl]-3-carboxamide analogs as inhibitors for beta-catenin/b-cell lymphoma 9 interactions” (2018).

SMILES strings stand for the structures.

For the compound `O=C(Nc1ccc(O[C@H]2CCNC2)c(-c2ccc(F)cc2)c1)c1ccc(O[C@H]2CCNC2)c(-c2ccc(F)cc2)c1`, in [1], the Ratio Ki stood at 35. Further, the IC50 in [2] was 7.05 to 8.35 µM; in assay [3] it was 19.9 µM; in [4], 8.23 µM; in assay [5] it was 18.8 µM; in assay [6], 9.86 µM. This compound displayed a Ki in [7] of 6.65 µM.
For the compound `NCCOc1ccc(NC(=O)c2ccc(OCCN)c(-c3ccc(F)c(F)c3)c2)cc1-c1ccc(F)cc1`, the Ratio Ki in [1] is 38.
Turning to `O=C(Nc1ccc(O[C@H]2CCNC2)c(-c2ccc(F)cc2)c1)c1ccc(O[C@H]2CCNC2)c(-c2ccc(F)c(F)c2)c1`, the inhibition entry in assay [2], in assay [4], in assay [8], in assay [9] and in [6] was “Dose-dependent effect” throughout. In addition, the IC50 in assay [2] was 2.32 to 2.47 µM; in [3] it was 9.07 µM; in assay [4], 3.07 µM; in [8], 2.97 µM; in [5], 8.79 µM; in assay [6], 3.5 µM. The values for the Ki in assay [10] and in assay [11] were 96.6 µM and 13.4 µM, respectively.
Take `O=C(Nc1ccc(OC2CNC2)c(-c2ccc(F)cc2)c1)c1ccc(OC2CNC2)c(-c2ccc(F)c(F)c2)c1`: the Ratio Ki in assay [1] was found to be 16.
As for `O=C(Nc1ccc(O[C@H]2CCNC2)c(-c2ccc(F)c(F)c2)c1)c1ccc(O[C@H]2CCNC2)c(-c2ccc(F)c(F)c2)c1`, the Ratio Ki in [1] is 30. Moreover, in [7], the Ki was found to be 8.71 µM.
Consider `O=C(Nc1ccc(O[C@H]2CCNC2)c(-c2ccc(F)cc2)c1)c1ccc(O[C@H]2CCNC2)c(-c2ccc3ccccc3c2)c1`, for which, in assay [2], the IC50 worked out at 220 µM.
Consider `NCCOc1ccc(NC(=O)c2ccc(OCCN)c(-c3ccc(F)cc3)c2)cc1-c1ccc(F)cc1`, for which the affinity in [7] corresponds to a Ki of 11.6 µM.
Consider `O=C(NCCCC(=O)N1CCNCC1)c1ccc(-c2cc(C(=O)Nc3ccc(O[C@H]4CCNC4)c(-c4ccc(F)cc4)c3)ccc2O[C@H]2CCNC2)cc1`, for which the Ratio Ki in assay [1] turned out to be 345.
Turning to `CC(C)c1cc2c(c(O)c1O)[C@@]1(C(=O)O)CCCC(C)(C)[C@@H]1CC2` [CARNOSIC ACID], in assay [1], the Ratio Ki came to 73. In addition, the results for the IC50 in [4], in assay [8] and in assay [6] were 8.67 µM, 20.2 µM and 10.5 µM, respectively.
In the case of `Cc1cc(C(=O)Nc2ccc(O[C@H]3CCNC3)c(-c3ccc(F)cc3)c2)ccc1O[C@H]1CCNC1`, the IC50 in assay [2] amounted to 9.03 µM.

Usually IC50 stands for the concentration needed to halve the response being measured. By Ki is commonly meant the dissociation constant of the complex between target and ligand, obtained from inhibition or displacement.
